Test system: breast ducts of live rabbits
Assay: Mannitol solution introduced into breast ducts of live rabbit: ductal fluid collection
Assay type: in vivo, New Zealand rabbit
Conditions: for recovery (out-flow liquid collected from duct): about an hour after injection
Protocol: The objective of these experiments was to test the effects of the introduction of a solution containing mannitol on the secretion of fluid from the breast ducts of live rabbits. New Zealand rabbit #3242, female, from Kraelik Farm in California weighing 4.1 kg was used. The rabbit was anesthetized by injection of 200 mg of ketamine and 40 mg of Zylazine. A second injection of 100 mg of ketamine and 20 mg of xylazine was made 2 hours later to maintain the rabbit in a deep plane of anesthesia. The thorax and abdomen of the rabbit was shaved to expose the breasts and nipples.
A single lumen blue color catheter (O.D. 0.23″ ID 0.017; O.D. at the tip 0.011″-0.012″) was inserted into a duct in each nipple. Three nipples were tested, and 2 ducts per nipple were accessed with a catheter. The nipples were identified A, B, and C.
A duct on nipple A was injected with 0.20 ml of a 12.5% solution of D-Mannitol in H2O (available from Sigma Chemicals, St. Louis, Mo. cat# M-9546 lot 6710402: C6H14O6 FW 182.2) with a single catheter. The control duct on nipple A was injected with 0.20 ml of phosphate buffered saline (PBS). A microfuge tube was attached to the end of each catheter to collect out flow liquid. Ten minutes later 0.2 ml of a 12.5% solution of D-Mannitol in H2O was injected into the first duct and the second duct was injected with 0.20 ml of phosphate buffered saline, for a total volume injected in each duct of 0.40 ml.
A duct on nipple B was injected with 0.5 ml of a 12.5% solution of D-Mannitol in H2O with a single catheter. The control duct on nipple B was injected with […] of phosphate buffered saline (PBS). A microfuge tube was attached to the end of each catheter to collect out-flow liquid.
A duct on nipple C was injected with 0.7 ml of a 12.5% solution of D-Mannitol in H2O with a single catheter. The control duct on nipple C was injected with 0.70 ml of phosphate buffered saline (PBS). A microfuge tube was attached to the end of each catheter to collect out flow liquid.
About an hour after the fluid containing mannitol or PBS was injected into the ducts via the catheters, the microfuge tubes were checked for whether any fluid was returned.
Davidson green dye (1 ul) was added to each microfuge tube containing fluid for the purpose of taking a picture. The rabbit was euthanized by IV injection of supersaturated KC1. PBS (1.5 ul) was added to each collection. The cells were spun onto Shandon coated slide using megafunnel and cytospin-3 machine (Shandon, Inc. located in Pittsburgh, Pa.) at a speed of 1500/per minute for 15 minutes. The cells were fixed on the slide in 95% ethanol for 10 minutes. The cells were stained using Hematoxylin and Eosin (HE) method of cytology of collected fluid.

OC[C@@H](O)[C@@H](O)[C@H](O)[C@H](O)CO [mannitol, D-Mannitol]
ducts from which fluid can be collected (ducts injected with mannitol solution (PBS control: 1 out of 3)): three out of three
recovery (out-flow liquid collected from duct) (nipple A, duct A1, 0.4 ml mannitol 12.5% in H2O injected intraductally (2 x 0.2 ml)): 310 ul liquid
recovery (out-flow liquid collected from duct) (nipple B, duct B1, 0.5 ml mannitol 12.5% in H2O injected intraductally): 490 ul liquid
recovery (out-flow liquid collected from duct) (nipple C, duct C1, 0.7 ml mannitol 12.5% in H2O injected intraductally): 280 ul liquid
